{"source": "patent US20230059124A1", "about": "“Novel TAS2R38 Bitter Taste Receptor Agonist” (priority 2021, published 2023)", "key": {"[1]": {"test_system": "TAS2R38 gene", "experiment": "qPCR TAS2R38 gene expression in hTBEC 1 culture", "format": "cell-based, human", "details": "for Tas2R38 3prime 2^-ddct / Tas2R38 5prime 2^-ddct / Tas2R38C DS 2^-ddct / Tas2R38 3prime ddCT / Tas2R38 5prime ddCT / Tas2R38C DS ddCT: 1 μM; for Tas2R38 3prime 2^-ddct / Tas2R38 5prime 2^-ddct / Tas2R38C DS 2^-ddct: control = 1.000", "excerpt": "(§1) Currently, very little is known about compounds that directly agonize and regulate TAS2R38 expression. Because of this, research related to the prenylflavonoid xanthohumol's effects on gene expression was compared with other TAS2R38 targeting compounds, namely sinigrin, a glucosinolate connected to the family of glucosides found in the Brassicaceae vegetable family and found in foods such as brussels sprouts and broccoli. […] selectively triggers the taster variant of the TAS2R38 receptor (Meyerhof, W. et al. The Molecular Receptive Ranges of Human TAS2R Bitter Taste Receptors. Chem Sense (2010) 35: 157-70.) […] was used as a comparator at a concentration of 1 the same concentration as xanthohumol (1 μM). Two hTBEC cultures were selected for this initial study. hTBEC 1 is derived from one of the most bitter-responsive cultures, which has a moderate/moderately low basal gene expression level of TAS2R38. hTBEC 2 is derived from a culture that responds to bitter stimuli, but has a high response in particular to TAS2R38 expression compared with other hTBEC repositories. RNA was harvested from cultures treated cultures and control cultures at 1 μM lead compound at 24 and 48 hours post treatment. Following is a table that explains the experimental paradigm in full: [table] In an effort to establishing a comprehensive understanding of xanthohumol's effects on gene expression, 3 unique primer pairs to accurately capture the TAS2R38 gene were developed as cultures. […] The published NCBI genetic sequence for the region of chromosome 7q that encodes TAS2R38 and overlay map the SNP variant markers to ensure the primers cover strategic regions of the TAS2R38 gene. For probing TAS2R38, 3 individual primer pairs were used for a comprehensive view of how the compound may be “hitting” the gene."}, "[2]": {"test_system": "TAS2R38 gene", "experiment": "qPCR TAS2R38 gene expression in hTBEC 2 culture", "format": "cell-based, human", "details": "1 μM; for Tas2R38 3prime 2^-ddct / Tas2R38 5prime 2^-ddct / Tas2R38C DS 2^-ddct: control = 1.000", "excerpt": "as §1"}, "[3]": {"test_system": "TAS2R38 gene", "experiment": "DNA microarray gene expression, MatTek full thickness tissue (EFT-200)", "format": "cell-based, Homo sapiens", "details": "0.05 ml solubilized xanthohumol liquid formulation 5 mg/ml, 48 hours; ratio >=1.3 = up-regulated", "excerpt": "The testing model used in this study is the MatTek full thickness tissue (EFT-200). This skin model consists of normal human-derived epidermal keratinocytes that have been cultured to form a multilayered, highly differentiated model of the human epidermis and human fibroblasts that have been seeded into a collagen matrix to form the dermis. This model also introduces a well-defined basement membrane between the epidermal and dermal layers, which is essential to enable in vivo like interactions between the keratinocytes and the fibroblasts.\nUpon arrival, the MatTek ET-200 tissue was stored at 4° C. until used (they can be stored for up to 72 hours however tissue viability may decrease with prolonged storage). Prior to use, the tissues to be used were removed from the agarose-shipping tray and placed into a 6-well plate containing 2.0 ml of assay medium (37±2° C.). All of the agarose must be removed from the outside of the tissue culture insert since any residual agarose may prevent the assay medium from reaching the tissue. […]\nAt the end of the incubation any residual test material was removed from the tissues by rinsing them twice with at least 100 μl of PBS. […] These broader ranges are a more conservative judging criterion and account for possible sources of variation in fluorescence intensity that are not associated with the treatment. […]"}, "[4]": {"details": "hTBEC 1, 24 hour, vs control 24"}, "[5]": {"details": "hTBEC 1, 48 hour, vs control 48 hour"}, "[6]": {"details": "hTBEC 2, 24 hour, vs control 24"}, "[7]": {"details": "hTBEC 2, 48 hour, vs control 48 hour"}}}
{"compound": "C=CCC(=NOS(=O)(=O)O)S[C@@H]1O[C@H](CO)[C@@H](O)[C@H](O)[C@H]1O", "note": "(stereo in doubt) [sinigrin, reference compound]", "values": [{"measurement": "Tas2R38 3prime 2^-ddct", "setting": "[1]; hTBEC 1, 24 hour", "result": 0.988}, {"measurement": "Tas2R38 5prime 2^-ddct", "setting": "[1]; hTBEC 1, 24 hour", "result": 1.142}, {"measurement": "Tas2R38C DS 2^-ddct", "setting": "[1]; hTBEC 1, 24 hour", "result": 1.023}, {"measurement": "Tas2R38 3prime ddCT", "setting": "[1]; [4]", "result": 0.017}, {"measurement": "Tas2R38 5prime ddCT", "setting": "[1]; [4]", "result": "−0.192"}, {"measurement": "Tas2R38C DS ddCT", "setting": "[1]; [4]", "result": "−0.033"}, {"measurement": "Tas2R38 3prime 2^-ddct", "setting": "[1]; hTBEC 1, 48 hour", "result": 0.983}, {"measurement": "Tas2R38 5prime 2^-ddct", "setting": "[1]; hTBEC 1, 48 hour", "result": 1.027}, {"measurement": "Tas2R38C DS 2^-ddct", "setting": "[1]; hTBEC 1, 48 hour", "result": 1.716}, {"measurement": "Tas2R38 3prime ddCT", "setting": "[1]; [5]", "result": 0.025}, {"measurement": "Tas2R38 5prime ddCT", "setting": "[1]; [5]", "result": "−0.038"}, {"measurement": "Tas2R38C DS ddCT", "setting": "[1]; [5]", "result": "−0.779"}, {"measurement": "Tas2R38 3prime 2^-ddct", "setting": "[2]; hTBEC 2, 24 hour", "result": 0.600}, {"measurement": "Tas2R38 5prime 2^-ddct", "setting": "[2]; hTBEC 2, 24 hour", "result": 0.553}, {"measurement": "Tas2R38C DS 2^-ddct", "setting": "[2]; hTBEC 2, 24 hour", "result": 0.657}, {"measurement": "Tas2R38 3prime ddCT", "setting": "[2]; [6]", "result": 0.736}, {"measurement": "Tas2R38 5prime ddCT", "setting": "[2]; [6]", "result": 0.616}, {"measurement": "Tas2R38C DS ddCT", "setting": "[2]; [6]", "result": 0.605}, {"measurement": "Tas2R38 3prime 2^-ddct", "setting": "[2]; hTBEC 2, 48 hour", "result": 1.436}, {"measurement": "Tas2R38 5prime 2^-ddct", "setting": "[2]; hTBEC 2, 48 hour", "result": 1.317}, {"measurement": "Tas2R38C DS 2^-ddct", "setting": "[2]; hTBEC 2, 48 hour", "result": 0.625}, {"measurement": "Tas2R38 3prime ddCT", "setting": "[2]; [7]", "result": "−0.524"}, {"measurement": "Tas2R38 5prime ddCT", "setting": "[2]; [7]", "result": "−0.397"}, {"measurement": "Tas2R38C DS ddCT", "setting": "[2]; [7]", "result": 0.677}]}
{"compound": "COc1cc(O)c(CC=C(C)C)c(O)c1C(=O)/C=C/c1ccc(O)cc1", "note": "[xanthohumol]", "values": [{"measurement": "Ratio of Medians, TAS2R38 (NM_176817) up-regulation", "setting": "[3]", "result": 21}, {"measurement": "up regulation of the TAS2R38 gene, higher than baseline or the Sinigrin control", "setting": "[1]; FIG. 1, 1 μM, within 24 hours, culture not stated", "result": "approximately 4 ×"}, {"measurement": "Tas2R38 3prime 2^-ddct", "setting": "[1]; hTBEC 1, 24 hour", "result": 2.024}, {"measurement": "Tas2R38 5prime 2^-ddct", "setting": "[1]; hTBEC 1, 24 hour", "result": 3.983}, {"measurement": "Tas2R38C DS 2^-ddct", "setting": "[1]; hTBEC 1, 24 hour", "result": 2.785}, {"measurement": "Tas2R38 3prime ddCT", "setting": "[1]; [4]", "result": "−1.017"}, {"measurement": "Tas2R38 5prime ddCT", "setting": "[1]; [4]", "result": "−1.994"}, {"measurement": "Tas2R38C DS ddCT", "setting": "[1]; [4]", "result": "−1.478"}, {"measurement": "Tas2R38 3prime 2^-ddct", "setting": "[1]; hTBEC 1, 48 hour", "result": 0.664}, {"measurement": "Tas2R38 5prime 2^-ddct", "setting": "[1]; hTBEC 1, 48 hour", "result": 1.368}, {"measurement": "Tas2R38C DS 2^-ddct", "setting": "[1]; hTBEC 1, 48 hour", "result": 4.109}, {"measurement": "Tas2R38 3prime ddCT", "setting": "[1]; [5]", "result": 0.591}, {"measurement": "Tas2R38 5prime ddCT", "setting": "[1]; [5]", "result": "−0.452"}, {"measurement": "Tas2R38C DS ddCT", "setting": "[1]; [5]", "result": "−2.039"}, {"measurement": "Tas2R38 3prime 2^-ddct", "setting": "[2]; hTBEC 2, 24 hour", "result": 2.013}, {"measurement": "Tas2R38 5prime 2^-ddct", "setting": "[2]; hTBEC 2, 24 hour", "result": 2.609}, {"measurement": "Tas2R38C DS 2^-ddct", "setting": "[2]; hTBEC 2, 24 hour", "result": 1.779}, {"measurement": "Tas2R38 3prime ddCT", "setting": "[2]; [6]", "result": "−1.009"}, {"measurement": "Tas2R38 5prime ddCT", "setting": "[2]; [6]", "result": "−1.383"}, {"measurement": "Tas2R38C DS ddCT", "setting": "[2]; [6]", "result": "−0.831"}, {"measurement": "Tas2R38 3prime 2^-ddct", "setting": "[2]; hTBEC 2, 48 hour", "result": 0.995}, {"measurement": "Tas2R38 5prime 2^-ddct", "setting": "[2]; hTBEC 2, 48 hour", "result": 0.624}, {"measurement": "Tas2R38C DS 2^-ddct", "setting": "[2]; hTBEC 2, 48 hour", "result": 4.175}, {"measurement": "Tas2R38 3prime ddCT", "setting": "[2]; [7]", "result": 0.007}, {"measurement": "Tas2R38 5prime ddCT", "setting": "[2]; [7]", "result": 0.679}, {"measurement": "Tas2R38C DS ddCT", "setting": "[2]; [7]", "result": "−2.062"}]}
